pEC50: −log10 of the molar value.
Key:
Type in all cases: binding
CtBP1 [1] = molecular target: T1, CtBP1 (Homo sapiens, UniProt Q13363); assay: SEC-MALS tetramer assembly; parameters: 28–375 (crystal); 28–440 (SEC-MALS)
CtBP2 = molecular target: T2, CtBP2 (Homo sapiens, UniProt P56545); assay: SEC-MALS tetramer assembly, concentration dependence
T2 construct: 31–445

CtBP1 [2] = molecular target: T1, CtBP1; assay: as above; parameters: 28–440

Nc1ncnc2c1ncn2[C@@H]1O[C@H](COP(=O)(O)O)[C@@H](O)[C@H]1O [AMP]
pEC50 (CtBP1 [1]): ~4.18

Nc1ncnc2c1ncn2[C@@H]1O[C@H](COP(=O)(O)OP(=O)(O)O)[C@@H](O)[C@H]1O [ADP]
pEC50 (CtBP2): ~4.37 | pEC50 (CtBP1 [2]): ~4.28

From PMC7949142, “NAD(H) phosphates mediate tetramer assembly of human C-terminal binding protein (CtBP)” (The Journal of Biological Chemistry, 2021)
